According to US20210247277A1, “Pretreatment Method for Fluorescent Image Diagnosis” (Goryo Chemical, Inc., priority 2018, published 2021):

Assays:
[1] = system: lymph nodes including sentinel lymph node (breast cancer metastasis); experiment: Fluorescence increase in lymph node clinical specimens resected during breast cancer surgery; settings: 50 μM in PBS
Procedure: After pretreatment of lymph node specimens resected during breast cancer surgery in PBS(−) for 0 minutes, 1 minute, 5 minutes, 10 minutes or an appropriate course of time, increases of fluorescence at 10 minutes after impregnation with a 50 μM gGlu-HMRG solution from that immediately after the impregnation are shown. A specimen diagnosed with cancer metastasis in pathological diagnosis is indicated by a filled circle, and a specimen confirmed to have no cancer metastasis is indicated by an open triangle.
Lymph nodes including sentinel lymph node excised for the purpose of pathological diagnosis during breast cancer surgery were divided and transported from the operating room to an inspection room in a state wrapped in gauze wetted with PBS. A reagent and PBS (140 mM NaCl, 2.7 mM KCl, 10 mM PO4^3−, pH=7.4) at room temperature were used. A PBS impregnated sample was impregnated with a container where PBS was placed, and continuously impregnated for 1 minute, 5 minutes, 10 minutes, or an appropriate course of time from 1 minute to 30 minutes. A PBS non-impregnated sample was stored in state wrapped in gauze wetted with PBS to prevent drying out, instead of being impregnated with PBS, and used in fluorescence measurement. The lymph nodes were carefully taken out with tweezers and put on a Petri dish, and visible images of autofluorescence were taken in a fluorescence measuring machine. 50 μM gGlu-HMRG dissolved in PBS was added to the Petri dish where the lymph nodes were placed, until the lymph nodes completely soaked therein. The fluorescence measurement was continued. The pathological diagnosis of the specimens used in this test was also conducted and checked against final results about whether cancer metastasized to each lymph node.
The fluorescence intensity was indicated by a ratio to the fluorescence intensity of a fluorescence intensity reference plate having a constant fluorescence intensity (measured fluorescence intensity/fluorescence intensity of the fluorescence intensity reference plate).

HeLa cells spheroid = experiment: Time-dependent fluorescence intensity in HeLa cell spheroid (fluorescence microscope); format: cell-based, human; settings: 1 μM; washed with HBSS and probe in HBSS, compared with PBS(−) 10 min and probe in PBS(−)
Procedure: Time-dependent changes in fluorescence intensity are shown for a HeLa cells spheroid which was washed with HBSS and then impregnated with a 1 μM solution of gGlu-HMRG dissolved in HBSS (upper), and for a HeLa cells spheroid which was impregnated with PBS(−) for 10 minutes and then impregnated with a 1 μM solution of gGlu-HMRG dissolved in PBS(−) (lower).
HeLa cells were inoculated at 10^5 cells/well and cultured for 4 to 6 days. The obtained spheroid was put on a glass bottom dish and cultured for about 3 hours. Then, the culture solution was removed, and the spheroid was impregnated with PBS(−) for 10 minutes. A control was washed with HBSS without being impregnated with PBS(−). A 1 μM solution of gGlu-HMRG dissolved in PBS(−) or HBSS was added to the spheroid impregnated with PBS(−) or the control spheroid. Each spheroid immediately (0 minutes), 10 minutes, 20 minutes, 30 minutes, and 60 minutes after addition of the gGlu-HMRG solution was photographed under a fluorescence microscope (Leica DMI 6000 CS, lens: 10×, filter Leica L5, excitation wavelength: 460 to 500 nm, fluorescence wavelength: 512 to 542 nm). Transmitted light images of the spheroid were taken 10 minutes after impregnated with PBS(−).

HeLa cell spheroid = experiment: Quantification of probe reaction and penetration in HeLa cell spheroid (fluorescence intensity by depth); format: cell-based, human
Procedure: (§1) FIG. 4 illustrates a method for analyzing the penetration or reaction of reagents into or with the spheroid. When “Depth” shown in FIGS. 5 to 10 was, for example, 200 μm, the fluorescence intensity of an open region in the illustration was determined from fluorescence intensity observed by fluorescence microscope, wherein the open region has the inside circle at 200 μm inside from the outer periphery and has the outside circle at 100 μm outside from the aforementioned inside circle as shown in the drawing.
HeLa cells (human uterine cervical cancer cell line) or A549 cells (human alveolar basal epithelial adenocarcinoma cell line) were inoculated at 1×10^4 cells to Nunclon Sphera and cultured for 7 to 14 days. Each obtained spheroid was allowed to adhere to a poly-L-lysine-coated glass bottom dish over approximately 24 hours. The medium was replaced with a buffer, and the spheroid was incubated at room temperature for 10 minutes (impregnation, rinse). […] An area (ROI) having the distance from surface shown in FIG. 4 was captured with ImageJ, and increase in the average luminance between the start of measurement and 5 minutes later was analyzed. Fluorescence was also observed by impregnating with saline and addition of gGlu-HMRG dissolved in PBS(−).
(§2) The buffers used and their composition are as follows.
(§3) PBS(−): 140 mM NaCl, 2.7 mM KCl, 10 mM PO4^3− (pH=7.4) PBS(+): PBS(−) described above as well as 0.90 mM CaCl2, 0.33 mM MgCl2 (pH=7.4) PBS−Ca: PBS(−) described above as well as 0.90 mM CaCl2 (pH=7.4) PBS−Mg: PBS(−) described above as well as 0.33 mM MgCl2 (pH=7.4) PBS−EDTA: PBS(−) described above as well as 0.2 mM EDTA (pH=7.4)
(§4) To evaluate the influence of divalent ion (calcium, etc.)-dependent adhesion, fluorescence was observed under the same conditions as in Example 3 except that the following buffers were used.
(§5) (1) No pretreatment (no rinse) and impregnation with a solution of gGlu-HMRG dissolved in PBS(−) (2) Pretreatment by Impregnating with PBS(−) (3) Pretreatment by Impregnating with PBS(+) (4) Pretreatment by impregnating with PBS(−)+0.2 mM EDTA

A549 cell spheroid = experiment: Quantification of probe reaction and penetration in A549 cell spheroid (fluorescence intensity by depth); format: cell-based, human
Procedure: as §1
HeLa cells (human uterine cervical cancer cell line) or A549 cells (human alveolar basal epithelial adenocarcinoma cell line) were inoculated at 1×10^4 cells to Nunclon Sphera and cultured for 7 to 14 days. Each obtained spheroid was allowed to adhere to a poly-L-lysine-coated glass bottom dish over approximately 24 hours. The medium was replaced with a buffer, and the spheroid was incubated at room temperature for 10 minutes (impregnation, rinse). The buffer in the dish was replaced with each buffer containing gGlu-HMRG dissolved to attain a final concentration of 0.1 μM (A549 cells) or 1 μM (HeLa cells), followed by observation under a fluorescence microscope (Leica DMI 6000 CS, lens: 10×, filter Leica L5, ex. 460 to 500 nm, em. 512 to 542 nm). An area (ROI) having the distance from surface shown in FIG. 4 was captured with ImageJ, and increase in the average luminance between the start of measurement and 5 minutes later was analyzed. Fluorescence was also observed by impregnating with saline and addition of gGlu-HMRG dissolved in PBS(−).
as §2, §3, §4, §5
Fluorescence was measured by the same method as in Example 3 except that a 5 μM FeRhoNox-1 probe was used instead of gGlu-HMRG as the fluorescent probe. The cells used were only A549 cells.

HeLa cells = experiment: Influence of pH on fluorescence of HeLa cells cultured on glass surface; format: cell-based, human; settings: 2 μM, 20 minutes, 37° C.
Procedure: (§6) Cells cultured on glass surface were reacted with gGlu-HMRG, and fluorescence intensity was compared. HeLa cells were inoculated at the same density to chambers of a 4-chamber glass bottom dish. The cells were cultured in DMEM+8% FBS, P.S. under conditions of 37° C. and 5% CO2 for approximately 8 hours. The cells were rinsed three times with PBS(−) adjusted to pH 6.5, 7.3, or 7.8, which was then replaced with each solution supplemented with 2 μM gGlu-HMRG. The cells were stained at 37° C. under 5% CO2 for 20 minutes and observed under a fluorescence microscope under the same conditions as above without the solution replaced. 100 ms exposure, gain 5 Int 5, ND1. Fluorescence intensity from 5 cells in fluorescence images, and background fluorescence intensity were measured with reference to superimposed images with DIC, and the mean and standard deviation were plotted. The fluorescence intensity of gGlu-HMRG and the fluorescence intensity of HMRG (fluorescent substance after reaction with GGT) were measured at each pH.

[2] = Fluorescence intensity of the probe and of its fluorescent product at each pH; format: physicochemical; settings: dependence on pH
Procedure: as §6

[3] = PBS(−) + 0.2 mM EDTA, compared with PBS(−)

| Compound | Increase in fluorescence intensity in the lymph nodes 10 minutes after the start of measurement ([1]; 5 specimens confirmed to have no cancer metastasis in pathological diagnosis) | Increase in fluorescence intensity in the lymph nodes 10 minutes after the start of measurement ([1]; some specimens confirmed to have cancer, without impregnation with PBS) | Increase in fluorescence intensity in the lymph nodes 10 minutes after the start of measurement ([1]; specimens confirmed to have cancer, impregnated with PBS (regardless of impregnating time)) | Increase of fluorescence in the spheroid over 0-60 minutes (HeLa cells spheroid) | Increase of fluorescence by distance from surface, 5 minutes (HeLa cell spheroid; [3]) | Increase of fluorescence by distance from surface, 5 minutes (HeLa cell spheroid; PBS(−) impregnation 10 minutes, probe in PBS(−), compared with HBSS without wash) | Increase of fluorescence by distance from surface, 5 minutes (HeLa cell spheroid; PBS(−) impregnation compared with no impregnation or PBS(+)) | Increase of fluorescence by distance from surface, 5 minutes (HeLa cell spheroid; probe in HBSS, no buffer wash, 1 μM, 50 μM (FIG. 5 legend)) | Increase rate of fluorescence, 5 minutes (A549 cell spheroid; PBS(+) impregnation) | Increase of fluorescence intensity by depth, 5 minutes (A549 cell spheroid; [3]) | Increase rate of fluorescence intensity, 5 minutes (A549 cell spheroid; PBS(−) impregnating treatment 10 min compared with PBS(+), 0.1 μM, 50 μM (FIG. 6 legend)) | Increase rate of fluorescence intensity, 5 minutes (A549 cell spheroid; PBS−Ca (PBS(−) + 0.90 mM CaCl2) 10 min, as in PBS(+)) | Increase rate of fluorescence intensity, 5 minutes (A549 cell spheroid; PBS−Mg (PBS(−) + 0.33 mM MgCl2) 10 min) | Increase of fluorescence intensity, 5 minutes (A549 cell spheroid; saline (154 mM NaCl) 10 min) | Fluorescence intensity of cells and background (HeLa cells; PBS(−) at lower pH (pH 6.5, 7.3, 7.8 tested)) | Fluorescence intensity of cells (HeLa cells; PBS(−) at pH of 7.3 or higher) | Fluorescence intensity at each pH [2] | Fluorescence intensity distribution by pretreatment solution, 5 minutes (A549 cell spheroid; 5 μM probe, PBS−, PBS+, PBS+Ca or PBS+EDTA 10 min) |
| --- | --- | --- | --- | --- | --- | --- | --- | --- | --- | --- | --- | --- | --- | --- | --- | --- | --- | --- |
| Nc1ccc2c(c1)Oc1cc(NC(=O)CC[C@H](N)C(=O)O)ccc1C21OCc2ccccc21 (stereo partly shown) [gGlu-HMRG] | little fluorescence increase | only weak fluorescence | strong fluorescence | slower increase of fluorescence in the central portion of the spheroid | further accelerated the increase of fluorescence | increase of fluorescence was mora rapid | accelerated the increase of fluorescence at a location distant from surface | increase of fluorescence was slowed with the increasing distance from surface | almost equivalent to that of no impregnation | larger increase of fluorescence intensity at a site deeper from surface | accelerated the increase rate of fluorescence intensity | less increased fluorescence | Substantially the same results as those of PBS(−) | increase of fluorescence intensity was slow | lower pH decreased a signal and increased a background | increased signal intensity | decreased with the elevation of pH | – |
| Nc1ccc2c(c1)Oc1cc(N)ccc1C21OCc2ccccc21 [HMRG] | – | – | – | – | – | – | – | – | – | – | – | – | – | – | – | – | decreased with the elevation of pH | – |
| FeRhoNox-1 | – | – | – | – | – | – | – | – | – | – | – | – | – | – | – | – | – | same tendency as that obtained using gGlu-HMRG |
